Reference: publication PMC8537953 (Viruses, 2021)

System: SARS-CoV-2
Type: cell-based

Compound: CC(N)C12CC3CC(CC(C3)C1)C2 (stereo not shown) [Rimantadine, rimantadine]
- % of culture cells infected: ≥ 80%
